Assays:
[1] = DRUGMATRIX: GABAA, Muscimol, Central radioligand binding (ligand: [3H] Muscimol); format: cell membranes, Rattus norvegicus, Wistar, Brain, Membrane; conditions: Not Active = under 50% inhibition at 10 µM
[2] = target: Mitogen-activated protein kinase 14 (Homo sapiens, UniProt Q16539); design: species or system Escherichia coli;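 note: inhibition of p38alpha enzyme activity in a biochemical kinase assay, with myelin basic protein serving as substrate; in other assays of this panel Not Active means under 50% inhibition at 10 µM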
Chain of Mitogen-activated protein kinase 14 (Q16539 whole entry): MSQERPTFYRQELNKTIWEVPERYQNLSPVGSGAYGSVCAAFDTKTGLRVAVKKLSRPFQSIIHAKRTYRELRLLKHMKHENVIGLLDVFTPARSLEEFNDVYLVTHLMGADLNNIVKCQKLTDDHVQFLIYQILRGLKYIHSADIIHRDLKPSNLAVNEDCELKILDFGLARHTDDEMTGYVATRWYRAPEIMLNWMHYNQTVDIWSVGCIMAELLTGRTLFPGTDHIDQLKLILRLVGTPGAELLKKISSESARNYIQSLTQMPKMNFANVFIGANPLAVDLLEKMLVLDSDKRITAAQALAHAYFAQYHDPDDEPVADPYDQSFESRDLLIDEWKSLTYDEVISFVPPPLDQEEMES

Acetylcholinesterase = Acetylcholinesterase (Homo sapiens, UniProt P22303); test: DRUGMATRIX: Acetylcholinesterase enzyme inhibition (substrate: acetylthiocholine); format: cell-based, HEK293; conditions: hek293; Not Active = under 50% inhibition at 10 µM
Chain of Acetylcholinesterase (P22303 whole entry): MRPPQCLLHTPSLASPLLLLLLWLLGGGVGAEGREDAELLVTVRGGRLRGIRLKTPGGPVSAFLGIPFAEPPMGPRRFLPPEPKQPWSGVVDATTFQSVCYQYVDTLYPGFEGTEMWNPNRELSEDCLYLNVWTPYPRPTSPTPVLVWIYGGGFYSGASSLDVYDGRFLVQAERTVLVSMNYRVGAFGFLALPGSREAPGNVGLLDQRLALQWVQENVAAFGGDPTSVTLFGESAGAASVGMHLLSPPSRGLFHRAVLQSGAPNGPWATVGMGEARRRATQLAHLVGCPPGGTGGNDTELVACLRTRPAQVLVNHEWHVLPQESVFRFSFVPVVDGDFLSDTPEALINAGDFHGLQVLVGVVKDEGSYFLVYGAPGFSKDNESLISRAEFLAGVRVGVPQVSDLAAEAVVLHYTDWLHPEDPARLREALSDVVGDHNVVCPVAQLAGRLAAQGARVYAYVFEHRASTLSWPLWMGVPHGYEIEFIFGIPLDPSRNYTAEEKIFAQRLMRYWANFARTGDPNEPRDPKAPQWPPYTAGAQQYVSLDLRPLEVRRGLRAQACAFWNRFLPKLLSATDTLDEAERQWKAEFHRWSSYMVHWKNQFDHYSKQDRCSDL

[3] = DRUGMATRIX: Leukotriene, BLT (LTB4) radioligand binding (ligand: [3H]LTB4); format: cell membranes, Membrane; conditions: u-937, Not Active = under 50% inhibition at 10 µM
[4] = target: T1, Angiotensin-converting enzyme (Oryctolagus cuniculus, UniProt P12822); test: biochemical; format: tissue-based, Lung;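 note: enzymatic inhibition of angiotensin-converting enzyme measured with FAPGG as the substrate; in other assays of this panel Not Active means under 50% inhibition at 10 µM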
T1 sequence (P12822 whole entry): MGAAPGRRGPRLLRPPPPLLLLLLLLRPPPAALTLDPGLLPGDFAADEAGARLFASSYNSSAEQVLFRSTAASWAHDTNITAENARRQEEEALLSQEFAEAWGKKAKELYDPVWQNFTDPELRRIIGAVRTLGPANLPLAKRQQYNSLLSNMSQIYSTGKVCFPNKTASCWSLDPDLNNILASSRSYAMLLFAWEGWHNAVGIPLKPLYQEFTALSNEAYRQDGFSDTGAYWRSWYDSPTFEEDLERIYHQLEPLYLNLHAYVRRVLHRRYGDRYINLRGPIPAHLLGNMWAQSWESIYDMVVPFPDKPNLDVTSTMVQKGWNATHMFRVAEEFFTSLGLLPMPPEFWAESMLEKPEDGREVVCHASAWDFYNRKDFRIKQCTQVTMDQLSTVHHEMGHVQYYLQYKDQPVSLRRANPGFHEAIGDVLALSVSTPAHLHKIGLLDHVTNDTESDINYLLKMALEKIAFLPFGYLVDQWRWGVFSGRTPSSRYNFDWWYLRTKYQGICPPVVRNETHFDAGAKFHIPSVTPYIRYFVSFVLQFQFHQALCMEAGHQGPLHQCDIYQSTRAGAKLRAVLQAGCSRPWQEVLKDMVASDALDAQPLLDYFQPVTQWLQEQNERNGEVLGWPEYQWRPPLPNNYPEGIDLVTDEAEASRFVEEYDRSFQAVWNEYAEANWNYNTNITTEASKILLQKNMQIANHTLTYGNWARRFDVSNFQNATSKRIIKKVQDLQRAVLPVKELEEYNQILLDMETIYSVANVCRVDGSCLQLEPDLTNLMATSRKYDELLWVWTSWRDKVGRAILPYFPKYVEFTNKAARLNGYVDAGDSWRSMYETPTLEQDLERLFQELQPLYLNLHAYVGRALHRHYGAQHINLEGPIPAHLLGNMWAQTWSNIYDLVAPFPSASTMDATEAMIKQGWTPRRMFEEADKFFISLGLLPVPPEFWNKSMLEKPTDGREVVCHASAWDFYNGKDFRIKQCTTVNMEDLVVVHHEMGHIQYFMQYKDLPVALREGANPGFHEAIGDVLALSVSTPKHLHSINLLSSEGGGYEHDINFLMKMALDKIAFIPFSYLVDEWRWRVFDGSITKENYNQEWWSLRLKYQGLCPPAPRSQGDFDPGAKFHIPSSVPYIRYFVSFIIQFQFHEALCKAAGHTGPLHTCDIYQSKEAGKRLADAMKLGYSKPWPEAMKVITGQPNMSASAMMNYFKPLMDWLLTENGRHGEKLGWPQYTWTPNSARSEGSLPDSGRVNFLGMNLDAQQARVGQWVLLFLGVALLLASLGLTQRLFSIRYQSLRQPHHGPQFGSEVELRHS

[5] = target: Beta-1 adrenergic receptor (Homo sapiens, UniProt P08588); test: DRUGMATRIX: Adrenergic beta1 radioligand binding (ligand: [125I] Cyanopindolol); format: cell membranes, CHO-K1, Membrane; conditions: cho-k1; Not Active = under 50% inhibition at 10 µM
Chain of Beta-1 adrenergic receptor (P08588 whole entry): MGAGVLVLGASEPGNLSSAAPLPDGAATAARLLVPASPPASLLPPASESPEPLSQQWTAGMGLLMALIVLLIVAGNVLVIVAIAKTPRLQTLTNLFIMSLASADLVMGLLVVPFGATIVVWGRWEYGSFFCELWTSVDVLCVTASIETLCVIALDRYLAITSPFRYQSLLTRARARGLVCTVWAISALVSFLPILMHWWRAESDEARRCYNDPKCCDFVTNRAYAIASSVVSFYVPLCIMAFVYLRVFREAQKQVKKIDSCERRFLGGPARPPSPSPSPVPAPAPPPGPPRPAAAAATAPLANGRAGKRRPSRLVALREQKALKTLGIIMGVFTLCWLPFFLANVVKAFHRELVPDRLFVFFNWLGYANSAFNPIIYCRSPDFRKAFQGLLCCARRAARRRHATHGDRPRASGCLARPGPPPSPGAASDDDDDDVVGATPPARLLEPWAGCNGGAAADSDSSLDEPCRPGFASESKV

Endothelin-1 receptor = target: T2, Endothelin-1 receptor (Homo sapiens, UniProt P25101); format: cell membranes, Membrane; conditions: cho-k1; note: in other assays of this panel Not Active means under 50% inhibition at 10 µM
T2 sequence (P25101 whole entry): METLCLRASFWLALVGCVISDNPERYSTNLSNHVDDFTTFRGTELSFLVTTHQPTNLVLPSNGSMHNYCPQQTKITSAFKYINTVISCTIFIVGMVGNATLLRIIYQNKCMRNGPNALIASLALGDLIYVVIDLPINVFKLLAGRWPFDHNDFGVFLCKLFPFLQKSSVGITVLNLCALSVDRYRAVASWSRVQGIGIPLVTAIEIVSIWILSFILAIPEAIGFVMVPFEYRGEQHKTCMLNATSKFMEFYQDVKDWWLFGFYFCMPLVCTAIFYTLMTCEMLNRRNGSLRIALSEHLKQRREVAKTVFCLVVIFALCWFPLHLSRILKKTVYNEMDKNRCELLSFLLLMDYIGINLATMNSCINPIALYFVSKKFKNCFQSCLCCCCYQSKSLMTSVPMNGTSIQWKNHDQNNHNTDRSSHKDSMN

Compound	IC50 [1]	Ki [1]	IC50 [2]	IC50 (Acetylcholinesterase)	IC50 [3]	Ki [3]	IC50 [4]	IC50 [5]	IC50 (Endothelin-1 receptor)	Ki [2]	Ki (Acetylcholinesterase)	Ki [4]	Ki [5]	Ki (Endothelin-1 receptor)	IC50 ([3]; read-out: IC50) [µM]	Ki ([3]; read-out: Ki) [µM]
O=C1CN(/N=C/c2ccc([N+](=O)[O-])o2)C(=O)N1 [NITROFURANTOIN]	Not Active	Not Active	Not Active	Not Active	Not Active	Not Active	Not Active	Not Active	Not Active	–	–	–	–	–	–	–
CC12CCC(CC1=O)C2(C)C (centres undefined) [CAMPHOR]	Not Active	Not Active	Not Active	Not Active	Not Active	Not Active	Not Active	Not Active	Not Active	–	–	–	–	–	–	–
CN(Cc1cc(Br)cc(Br)c1N)C1CCCCC1 [BROMHEXINE]	Not Active	Not Active	Not Active	Not Active	Not Active	Not Active	Not Active	Not Active	Not Active	–	–	–	–	–	–	–
COPPER(II) OXIDE	Not Active	Not Active	Not Active	Not Active	Not Active	Not Active	Not Active	Not Active	Not Active	Not Active	Not Active	Not Active	Not Active	Not Active	–	–
CC(CN1c2ccccc2Sc2ccccc21)N(C)C (centres undefined) [PROMETHAZINE]	Not Active	Not Active	Not Active	Not Active	Not Active	Not Active	Not Active	Not Active	Not Active	–	–	–	–	–	–	–
NC(N)=Nc1nc(CSCCC(N)=NS(N)(=O)=O)cs1 [FAMOTIDINE]	Not Active	Not Active	Not Active	Not Active	Not Active	Not Active	Not Active	Not Active	Not Active	–	–	–	–	–	–	–
CC(C)(c1ccc(O)cc1)c1ccc(O)cc1 [BISPHENOL A]	Not Active	Not Active	Not Active	Not Active	Not Active	Not Active	Not Active	Not Active	Not Active	–	–	–	–	–	–	–
c1ccc2sc(SSc3nc4ccccc4s3)nc2c1 [BENZOTHIAZYL DISULFIDE]	Not Active	Not Active	Not Active	Not Active	–	–	Not Active	Not Active	Not Active	–	–	–	–	–	5.1	1.3
CC(=O)Nc1ccc2c(c1)Cc1ccccc1-2 [2-ACETYLAMINOFLUORENE]	Not Active	Not Active	Not Active	Not Active	Not Active	Not Active	Not Active	Not Active	Not Active	–	–	–	–	–	–	–
Cc1cc(C(C)(C)C)c(O)c(C)c1CC1=NCCN1 [OXYMETAZOLINE]	Not Active	Not Active	Not Active	Not Active	Not Active	Not Active	Not Active	Not Active	Not Active	–	–	–	–	–	–	–
c1ccc(Cn2ccnc2)cc1	Not Active	Not Active	Not Active	Not Active	Not Active	Not Active	Not Active	Not Active	Not Active	–	–	–	–	–	–	–
Nc1ccc(Cc2ccc(N)cc2)cc1	Not Active	Not Active	Not Active	Not Active	Not Active	Not Active	Not Active	Not Active	Not Active	–	–	–	–	–	–	–
CC(N)Cc1c[nH]c2ccc(OCc3cccs3)cc12 (centres undefined) [BW-723C86]	Not Active	Not Active	Not Active	Not Active	Not Active	Not Active	Not Active	Not Active	Not Active	–	–	–	–	–	–	–
CCO [ALCOHOL]	Not Active	Not Active	Not Active	Not Active	Not Active	Not Active	Not Active	Not Active	Not Active	–	–	–	–	–	–	–
CC[C@H]1OC(=O)[C@H](C)[C@@H](O[C@H]2C[C@@](C)(OC)[C@@H](O)[C@H](C)O2)[C@H](C)[C@@H](O[C@@H]2O[C@H](C)C[C@H](N(C)C)[C@H]2O)[C@](C)(O)C[C@@H](C)C(=O)[C@H](C)[C@@H](O)[C@]1(C)O [ERYTHROMYCIN]	Not Active	Not Active	Not Active	Not Active	Not Active	Not Active	Not Active	Not Active	Not Active	–	–	–	–	–	–	–
O=C(O)CNCP(=O)(O)O [GLYPHOSATE]	Not Active	Not Active	Not Active	Not Active	Not Active	Not Active	Not Active	Not Active	Not Active	–	–	–	–	–	–	–
Nc1nc(N)c2nc(CNc3ccc(C(=O)N[C@@H](CCC(=O)O)C(=O)O)cc3)cnc2n1 [AMINOPTERIN]	Not Active	Not Active	Not Active	Not Active	Not Active	Not Active	Not Active	Not Active	Not Active	–	–	–	–	–	–	–
CC(C)Cn1cnc2c(N)nc3ccccc3c21 [IMIQUIMOD]	Not Active	Not Active	Not Active	Not Active	Not Active	Not Active	Not Active	Not Active	Not Active	–	–	–	–	–	–	–
C[N+](C)(C)CCOP(=O)([O-])OC[C@H](O)CO	Not Active	Not Active	Not Active	Not Active	Not Active	Not Active	Not Active	Not Active	Not Active	–	–	–	–	–	–	–
OC[C@H]1O[C@@H]2O[C@H]3[C@H](O)[C@@H](O)[C@@H](O[C@H]4[C@H](O)[C@@H](O)[C@@H](O[C@H]5[C@H](O)[C@@H](O)[C@@H](O[C@H]6[C@H](O)[C@@H](O)[C@@H](O[C@H]7[C@H](O)[C@@H](O)[C@@H](O[C@H]8[C@H](O)[C@@H](O)[C@@H](O[C@H]1[C@H](O)[C@H]2O)O[C@@H]8CO)O[C@@H]7CO)O[C@@H]6CO)O[C@@H]5CO)O[C@@H]4CO)O[C@@H]3CO [BETADEX]	Not Active	Not Active	Not Active	Not Active	Not Active	Not Active	Not Active	Not Active	Not Active	–	–	–	–	–	–	–
CARBOXYMETHYLCELLULOSE	Not Active	Not Active	Not Active	Not Active	Not Active	Not Active	Not Active	Not Active	Not Active	Not Active	Not Active	Not Active	Not Active	Not Active	–	–

From ChEMBL document CHEMBL1909046, “DrugMatrix in vitro pharmacology data”
